The NIST ThermoML archive (doi:10.1016/j.tca.2012.01.013)
± gives the expanded uncertainty stated by the source.

Test: xn = mol fraction of the nth substance listed
Conditions: 101 kPa, Liquid, Vibrating tube method

COC(=O)c1ccccc1C(=O)OC [dimethyl 1,2-benzenedicarboxylate] + CCC(C)=O
mass density [kg/m3]
Conditions | x1 = 0.1002 | x1 = 0.2001 | x1 = 0.3002 | x1 = 0.3997 | x1 = 0.4982 | x1 = 0.6001 | x1 = 0.6993 | x1 = 0.7993 | x1 = 0.9002 | x1 = 1
288.15 K | 878.718 ± 0.18 | 936.554 ± 0.16 | 986.029 ± 0.15 | 1028.42 ± 0.17 | 1064.97 ± 0.2 | 1098.15 ± 0.23 | 1126.71 ± 0.27 | 1152.38 ± 0.31 | 1175.59 ± 0.35 | 1196.26 ± 0.39
293.15 K | 873.583 ± 0.19 | 931.496 ± 0.17 | 981.04 ± 0.16 | 1023.49 ± 0.17 | 1060.1 ± 0.2 | 1093.33 ± 0.23 | 1121.93 ± 0.27 | 1147.64 ± 0.31 | 1170.9 ± 0.35 | 1191.59 ± 0.39
298.15 K | 868.432 ± 0.19 | 926.423 ± 0.17 | 976.038 ± 0.16 | 1018.55 ± 0.17 | 1055.22 ± 0.2 | 1088.5 ± 0.23 | 1117.16 ± 0.27 | 1142.92 ± 0.3 | 1166.21 ± 0.35 | 1186.93 ± 0.39
303.15 K | 863.253 ± 0.19 | 921.334 ± 0.17 | 971.032 ± 0.16 | 1013.62 ± 0.17 | 1050.34 ± 0.2 | 1083.68 ± 0.23 | 1112.38 ± 0.26 | 1138.18 ± 0.3 | 1161.51 ± 0.34 | 1182.28 ± 0.38
308.15 K | 858.059 ± 0.19 | 916.232 ± 0.17 | 966.01 ± 0.16 | 1008.66 ± 0.17 | 1045.45 ± 0.19 | 1078.84 ± 0.23 | 1107.6 ± 0.26 | 1133.45 ± 0.3 | 1156.83 ± 0.34 | 1177.62 ± 0.38
313.15 K | 852.838 ± 0.19 | 911.111 ± 0.17 | 960.975 ± 0.16 | 1003.7 ± 0.16 | 1040.55 ± 0.18 | 1074.01 ± 0.22 | 1102.82 ± 0.25 | 1128.73 ± 0.29 | 1152.15 ± 0.33 | 1172.97 ± 0.37
318.15 K | 847.588 ± 0.19 | 905.966 ± 0.17 | 955.922 ± 0.16 | 998.73 ± 0.16 | 1035.65 ± 0.18 | 1069.17 ± 0.21 | 1098.05 ± 0.25 | 1124.01 ± 0.29 | 1147.47 ± 0.33 | 1168.32 ± 0.37
323.15 K | 842.312 ± 0.21 | 900.811 ± 0.19 | 950.87 ± 0.18 | 993.761 ± 0.17 | 1030.75 ± 0.19 | 1064.33 ± 0.22 | 1093.26 ± 0.25 | 1119.27 ± 0.29 | 1140.78 ± 3 | 1163.67 ± 0.37
